In patent publication US20140256644A1, “Treatment of Muscular Conditions and Muscular Dystrophies” (priority 2011, published 2014):
Entries after “also recorded” stand apart in the source; their conditions may differ. Where no end group is shown, it is not given here.

Experiments:
[1] = system: adult mdx FDB myofibers; assay: Stretch-induced ROS production (X-ROS), DCF fluorescence, 10% axial stretch (MuST); type: cell-based, mouse; settings: adult mdx FDB fibers, 10% stretch, gp91dsTAT 2 μM, fulvene-5 5 μM, L-NAME 1 mM, colchicine, nocodozole, latrunculin A 10 μM
Description: (§1) After euthanasia by CO2 inhalation, flexor digitorum brevis (FDB) muscle was harvested bilaterally and incubated in DMEM with 1 μl/ml gentamicin, and 0.4% collagenase A (Roche Applied Science, Indianapolis, Ind., USA) as described. Single intact myofibers were isolated by gentle trituration. The fibers were imaged and/or fixed for immunolabeling within an 8-h period (unless indicated), thus avoiding morphological changes that can occur in FDB fibers that are cultured for a prolonged period.
All experiments were performed in custom rotating glass-bottom chamber (Four-hour Day Foundation, Towson, Md.) equipped with bath perfusion and mounted on BioRad Radiance fluorescent laser scanning confocal attached to an Olympus IX-70 inverted microscope (Olympus Corp., Centre Valley, Pa.). Cells were attached using micro-tweezers coated with the biological adhesive, MyoTak (Ionoptix, Milton, Mass.) and connected to a high-sensitivity force transducer (KG7) equipped with an anti-oscillation filter and a piezo-electric length controller (World Precision Instruments, Sarasota, Fla.). The force transducer and length controller were mounted on folded motorized micromanipulators (Siskiyou, Grants Pass, Oreg.) allowing to place the tweezers above the cell of interest. The rotating chamber, the tweezer-equipped force transducer and length controller and the micromanipulators formed the Muscle Stretch Tool (MUST).
(§2) Myofibers were attached at both ends by gently closing the MyoTak-coated tweezers without compressing the cell membrane and then lifting the cell from the bottom of the chamber. Cell sarcomere length was monitored using a High-speed Video Sarcomere Length camera (Aurora Scientific, Aurora, ON, CAN) and the voltage into the length controller was adjusted to produce a stretch equal to 10% of resting sarcomere length. The tension signal from the force transducer and positional output from the length controller were recorded at 1 kHz using a 600A data acquisition system from Aurora.
ROS was measured using 6-carboxy-2″,7″-dichlorodihydrofluorescein diacetate (DCFH-DA) (Invitrogen, Carlsbad, Calif.) in dimethyl sulfoxide (DMSO). FDB fibers were suspended in HEPES-buffered Ringer's solution containing (in mM): 140 NaCl, 4.0 KCl, 1.0 MgSO4, 5.0 NaHCO3, 10.0 glucose, 10.0 HEPES at pH 7.3 and incubated with Ringer's solution containing DCFH-DA (10 μM) for 30 minutes at room temperature. DCF-loaded cells were mounted on MUST and imaged using confocal line-scanning microscopy at 2 ms/line with very low laser intensity to prevent artifactual amplification of the signal due to light oxidation. DCF fluorescence signals were processed as described (16). The NOX2 specific inhibitor gp91dsTAT (2 μM), NOX inhibitor fulvene-5 (5 μM) and nitric oxide synthase inhibitor L-NAME (1 mM) was used to verify the source of ROS. Interrogation of cytoskeletal involvement in stretch dependent ROS or Ca^2+ influx was done with pharmacological methods.

[2] = system: wild-type (WT) mice; assay: In vivo eccentric contraction-induced injury in wild-type mice (gastrocnemius); design: species or system mouse
Description: WT mice were treated in vivo with either vehicle, or a combination of colchicine and apocynin. Following treatment, the gastrocnemius muscle was assayed for susceptibility to in vivo eccentric contraction injury.
(§3) Anaesthetized mice (isoflurane) were placed on a thermostatically controlled table, the knee was fixed with a pin and the foot was firmly fixed to a footplate on the motor shaft. Contraction was elicited by percutaneous electrical stimulation of the sciatic nerve. Optimal isometric tetanic torque was determined with increasing current with a minimum of 30 s between each contraction to avoid fatigue. Eccentric contractions at maximal isometric torque (0.2 ms pulse train at 100 Hz) were assayed for the resistance to muscle damage.
Eccentric contractions were achieved by lengthening the muscle during maximal contraction. This was achieved by translating the footplate 30° at a velocity of 40 mm/s following the first 200 msec of the isometric contraction. This protocol consisted of 20 eccentric contractions with 1 minute pauses in between. The decrease in the peak isometric force prior to the eccentric phase was taken as an indication for muscle damage.

[3] = system: adult mdx mice; assay: In vitro isometric contraction-induced injury of EDL muscle after in vivo treatment; design: species or system mouse; settings: mdx mice treated in vivo (colchicine 1 mg/kg IP 4 hours; apocynin 3 mg/kg IP 3 days), 20 isometric contractions
Description: Following CO2 asphyxiation and cervical dislocation, single EDL muscles were surgically excised with ligatures at each tendon (5-0 silk suture) and mounted in an in vitro bath between a fixed post and force transducer (Aurora 300B-LR) operated in isometric mode. The muscle was maintained in physiological saline solution and maintained at 30° C. under aeration with 95 O2/5 CO2 (%) throughout the experiment. Resting tension, muscle length and stimulation current were iteratively adjusted for each muscle to obtain optimal twitch force. During a 5 minute equilibration, single twitches were elicited at every 30 seconds with electrical pulses (0.5 msec) through platinum electrodes running parallel to the muscle. The injury protocol used to induce a force deficit (39) consisted of 20 maximum isometric contractions (1 sec at 100 Hz) separated by 1 minute. The absolute isometric force of each muscle during the contraction protocol was normalized to the maximum isometric force (Po) produced by the muscle during the 20-contraction protocol.

[4] = biological target: T1, NOX (Homo sapiens, UniProt P04839); settings: in muscle; apocynin or its oxidation products; cited from earlier work
T1 construct: host or cells: muscle
T1 sequence (P04839 1-570): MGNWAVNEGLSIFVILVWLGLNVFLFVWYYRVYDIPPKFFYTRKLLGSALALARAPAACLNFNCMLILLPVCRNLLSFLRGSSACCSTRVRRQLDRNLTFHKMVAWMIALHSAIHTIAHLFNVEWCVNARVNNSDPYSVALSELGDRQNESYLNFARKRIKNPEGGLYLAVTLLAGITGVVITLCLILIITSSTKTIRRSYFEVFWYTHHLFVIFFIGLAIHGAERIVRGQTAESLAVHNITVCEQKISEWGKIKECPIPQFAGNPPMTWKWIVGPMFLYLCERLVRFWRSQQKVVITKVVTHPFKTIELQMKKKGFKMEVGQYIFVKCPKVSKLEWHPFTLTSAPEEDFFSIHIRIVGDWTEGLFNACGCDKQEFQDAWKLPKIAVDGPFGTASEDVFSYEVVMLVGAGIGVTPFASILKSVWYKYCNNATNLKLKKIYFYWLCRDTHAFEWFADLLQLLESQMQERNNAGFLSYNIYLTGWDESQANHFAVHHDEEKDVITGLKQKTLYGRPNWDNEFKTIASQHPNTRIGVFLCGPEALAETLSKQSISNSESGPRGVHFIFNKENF

[5] = system: adult mdx mice; assay: In vivo eccentric contraction-induced injury in mdx; settings: for eccentric contraction induced force loss: colchicine 1 mg/kg IP 4 hours or apocynin 3 mg/kg IP 3 days, 20 eccentric contractions; for eccentric contraction induced force drop (FIG. 13): dimethylaminoparthenolide 50 mg/kg via gavage per day/3 days, Gp91ds-TAT 5 ug/g body weight, 2 doses one day apart
Description: as §3
Eccentric contractions were achieved by lengthening the muscle during maximal contraction. This was achieved by translating the footplate 30° at a velocity of 40 mm/s following the first 200 msec of the isometric contraction. This protocol consisted of 20 eccentric contractions with 1 minute pauses in between. The decrease in the peak isometric force prior to the eccentric phase was taken as an indication for muscle damage. To test the role of X-ROS in the functional status of mdx muscle, adult mdx mice were treated with either colchicine (1 mg/kg IP; 4 hours) or apocynin (3 mg/kg IP; 3 days) in vivo to reduce X-ROS signaling followed by a contraction protocol to produce mechanical stress.

[6] = system: adult mdx FDB myofibers; assay: Stretch-dependent sarcolemmal Ca2+ influx, fluo-4 fluorescence rate; type: cell-based, mouse; settings: adult mdx FDB fibers, acute stretch, GsMTx4 2.5 μM, colchicine 10 μM
Description: as §1, with “period. […]” for “period.”
as §2
Similar to DCF measurements, FDBs were suspended in Ringer's solution containing 5 μM fluo-4-AM (Invitrogen, Carlsbad, Ca) for 30 minutes at room temperature. […] Fluo-4 signal slopes before stretch and after were measured.

[7] = system: wild-type FDB fibers; assay: Cytoskeletal stiffness by axial compression, atomic force microscopy; settings: 10 μM, 2 hrs
[8] = system: microtubule network in isolated FDB myofibers; assay: Fluorescence labeling and quantification of α-tubulin (microtubule network density); type: cell-based, mouse; settings: for microtubule density (α-tubulin IHC): FDB fibers, colchicine 10 μM, taxol 10 μM; for microtubule density in isolated FDB myofibers: Angiotensin II treatment over 24 hrs
Description: Isolated intact FBDs were plated on ECM gel from Engelbreth-Holm-Swarm murine sarcoma coated imaging dishes (MatTek, Ashland, Mass.). Following treatment, plated myofibers were fixed with 2% paraformaldehyde, permeabilized with 0.1% Triton X-100 in phosphate buffered saline (PBS), blocked in 8% bovine serum albumin in PBS, and then labeled overnight with an antibody to α-tubulin conjugated to Alexa Fluor 488 (anti-mouse; Invitrogen, Carlsbad, Calif., USA). Digital images were obtained with a BioRad Radiance fluorescent laser scanning confocal attached to an Olympus IX-70 inverted microscope. Laser intensity was adjusted on a sample-to-sample basis to maximize amount of microtubules that are visualized. A 35-image Z-stack was taken at 0.5 μm interval and the most representative 9 frames were stacked together using ImageJ (NIH, USA) to form a composite image. Quantification was performed on the binary image representation of the 9-image stack. Background was subtracted uniformly and image was transformed into a binary using ImageJ unbiased binary function. A uniform region of interest was selected and mean intensity measured.

[9] = system: young WT muscle cells; assay: Stretch Ca2+ entry in young fibers after increasing microtubule density; type: cell-based, mouse; settings: young WT treated with taxol
Description: Similar to DCF measurements, FDBs were suspended in Ringer's solution containing 5 μM fluo-4-AM (Invitrogen, Carlsbad, Ca) for 30 minutes at room temperature. Fluo-4-loaded cells were mounted on MUST and imaged using confocal line-scanning microscopy at 2 ms/line. Fluo-4 signal slopes before stretch and after were measured.

[10] = system: young wild-type and young mdx FDB muscle fibers; assay: Stretch-induced X-ROS in young fibers after increasing microtubule density; type: cell-based, mouse; settings: young wild-type or young mdx fibers, taxol 10 μM
Description: All experiments were performed in custom rotating glass-bottom chamber (Four-hour Day Foundation, Towson, Md.) equipped with bath perfusion and mounted on BioRad Radiance fluorescent laser scanning confocal attached to an Olympus IX-70 inverted microscope (Olympus Corp., Centre Valley, Pa.). Cells were attached using micro-tweezers coated with the biological adhesive, MyoTak (Ionoptix, Milton, Mass.) and connected to a high-sensitivity force transducer (KG7) equipped with an anti-oscillation filter and a piezo-electric length controller (World Precision Instruments, Sarasota, Fla.). […]
as §2
ROS was measured using 6-carboxy-2″,7″-dichlorodihydrofluorescein diacetate (DCFH-DA) (Invitrogen, Carlsbad, Calif.) in dimethyl sulfoxide (DMSO). […] DCF fluorescence signals were processed as described (16). […]

[11] = system: C2C12 myotubes; assay: Microtubule subunit content in myotubes; type: cell-based
[12] = system: wild-type FDB fibers; assay: Stretch activated calcium influx, Mn quench assay; settings: parthenolide 10 uM 2 hrs, Gp91ds-TAT 1 uM 30 minutes
[13] = biological target: Piezo2 (Homo sapiens, UniProt Q9H5I5); settings: cited from earlier work
[14] = system: Piezo1; settings: cited from earlier work
Chain of Piezo1 (Q92508 whole entry, species assumed): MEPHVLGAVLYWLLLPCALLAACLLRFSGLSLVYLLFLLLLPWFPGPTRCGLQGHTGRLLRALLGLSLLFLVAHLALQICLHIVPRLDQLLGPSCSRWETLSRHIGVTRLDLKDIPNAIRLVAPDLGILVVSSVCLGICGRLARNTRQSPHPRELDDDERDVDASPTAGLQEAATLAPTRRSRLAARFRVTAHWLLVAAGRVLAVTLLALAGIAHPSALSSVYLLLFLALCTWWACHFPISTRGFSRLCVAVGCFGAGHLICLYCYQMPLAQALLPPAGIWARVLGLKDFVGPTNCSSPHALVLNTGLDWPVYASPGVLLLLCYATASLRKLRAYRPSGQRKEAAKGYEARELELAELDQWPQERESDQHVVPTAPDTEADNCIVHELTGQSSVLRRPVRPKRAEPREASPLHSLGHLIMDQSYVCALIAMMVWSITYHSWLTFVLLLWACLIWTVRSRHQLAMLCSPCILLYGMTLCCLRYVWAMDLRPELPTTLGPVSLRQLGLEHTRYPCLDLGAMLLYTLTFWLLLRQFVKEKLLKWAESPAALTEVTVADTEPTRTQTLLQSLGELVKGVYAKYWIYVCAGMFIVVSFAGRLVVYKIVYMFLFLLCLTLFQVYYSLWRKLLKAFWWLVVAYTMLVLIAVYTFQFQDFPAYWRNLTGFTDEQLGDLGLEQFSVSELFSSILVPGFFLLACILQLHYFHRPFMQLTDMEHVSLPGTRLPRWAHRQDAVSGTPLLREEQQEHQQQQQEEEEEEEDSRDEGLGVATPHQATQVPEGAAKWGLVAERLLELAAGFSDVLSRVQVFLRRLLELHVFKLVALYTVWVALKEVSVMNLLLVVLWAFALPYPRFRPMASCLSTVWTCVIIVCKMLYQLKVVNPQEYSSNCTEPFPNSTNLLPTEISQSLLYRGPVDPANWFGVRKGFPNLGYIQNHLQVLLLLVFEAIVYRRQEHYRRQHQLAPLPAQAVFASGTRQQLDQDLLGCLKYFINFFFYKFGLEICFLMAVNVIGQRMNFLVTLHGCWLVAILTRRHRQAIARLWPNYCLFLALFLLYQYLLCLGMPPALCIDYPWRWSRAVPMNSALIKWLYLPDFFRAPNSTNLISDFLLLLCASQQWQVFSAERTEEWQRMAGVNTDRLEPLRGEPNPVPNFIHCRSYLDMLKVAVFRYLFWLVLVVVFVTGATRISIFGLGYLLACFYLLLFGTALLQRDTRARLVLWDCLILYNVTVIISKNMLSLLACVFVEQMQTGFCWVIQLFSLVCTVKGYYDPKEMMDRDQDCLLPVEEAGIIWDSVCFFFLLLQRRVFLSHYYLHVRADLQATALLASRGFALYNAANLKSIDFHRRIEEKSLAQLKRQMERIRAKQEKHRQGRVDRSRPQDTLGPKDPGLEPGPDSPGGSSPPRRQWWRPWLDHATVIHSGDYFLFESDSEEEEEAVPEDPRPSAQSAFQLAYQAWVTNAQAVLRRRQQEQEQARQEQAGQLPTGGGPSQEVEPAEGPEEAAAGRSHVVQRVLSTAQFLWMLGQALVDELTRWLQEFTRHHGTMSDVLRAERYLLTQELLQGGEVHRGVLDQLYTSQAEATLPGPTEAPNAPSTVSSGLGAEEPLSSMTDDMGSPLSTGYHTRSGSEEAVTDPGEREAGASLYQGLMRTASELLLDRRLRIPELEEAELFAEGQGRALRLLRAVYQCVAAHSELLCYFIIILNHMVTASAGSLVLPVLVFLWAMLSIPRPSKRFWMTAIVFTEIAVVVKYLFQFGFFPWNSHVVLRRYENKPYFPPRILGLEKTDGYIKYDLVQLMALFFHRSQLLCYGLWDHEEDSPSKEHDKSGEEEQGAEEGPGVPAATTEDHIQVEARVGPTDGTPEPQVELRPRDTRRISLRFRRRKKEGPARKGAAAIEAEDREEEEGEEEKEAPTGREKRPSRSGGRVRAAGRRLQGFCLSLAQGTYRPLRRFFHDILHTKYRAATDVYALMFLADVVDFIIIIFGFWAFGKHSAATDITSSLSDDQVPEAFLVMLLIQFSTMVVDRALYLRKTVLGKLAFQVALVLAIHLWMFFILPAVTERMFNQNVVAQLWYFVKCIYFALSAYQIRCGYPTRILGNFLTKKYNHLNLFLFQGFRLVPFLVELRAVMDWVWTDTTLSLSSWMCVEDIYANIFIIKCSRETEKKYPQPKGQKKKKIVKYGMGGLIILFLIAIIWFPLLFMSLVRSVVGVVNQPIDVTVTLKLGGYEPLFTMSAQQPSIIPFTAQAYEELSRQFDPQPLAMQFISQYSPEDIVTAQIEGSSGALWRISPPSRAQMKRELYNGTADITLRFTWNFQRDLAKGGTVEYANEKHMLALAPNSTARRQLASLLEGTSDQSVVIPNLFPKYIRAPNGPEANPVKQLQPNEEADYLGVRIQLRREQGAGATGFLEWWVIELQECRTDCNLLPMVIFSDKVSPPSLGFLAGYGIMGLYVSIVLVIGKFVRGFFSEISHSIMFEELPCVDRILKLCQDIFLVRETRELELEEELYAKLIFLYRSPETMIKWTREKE

**Q.** For `CCN(CC)CCCC(C)Nc1nc(C)cc(Nc2ccc3nc(C)cc(N)c3c2)n1` (racemic) [Rac1 inhibitor], which “stretch-induced ROS production (X-ROS)” value [1] is on record?
**A.** effective at abrogating X-ROS; also recorded: ameliorated the stretch-induced ROS production

**Q.** For `COC(=O)[C@@H](N)CCCNC(=N)N[N+](=O)[O-]` [L-NAME], which “stretch-induced ROS production (X-ROS)” value [1] is on record?
**A.** had no effect

**Q.** With `COc1cc(C(C)=O)ccc1O` [apocynin] as the compound, how does the “eccentric contraction induced force drop in wild-type mice” value ([2]; WT mice, gastrocnemius, 18 eccentric contractions) read?
**A.** significantly decreased the eccentric contraction induced force loss

**Q.** And the “isometric contraction induced force loss” value [3]?
**A.** significant protection from force loss; also recorded: significantly decreased the isometric contraction induced force loss

**Q.** What about the “translocation of cytosolic p47phox and p67phox proteins / inactivation of NOX” value [4] of the same compound?
**A.** inhibit translocation

**Q.** And the “eccentric contraction induced force loss” value [5]?
**A.** significantly ameliorated the contraction induced force drop; also recorded: significant protection from force loss; also recorded: significantly reduced contraction induced force loss

**Q.** Which “stretch dependent sarcolemmal Ca2+ influx” value [6] does the source give for `COc1cc2c(c(OC)c1OC)-c1ccc(OC)c(=O)cc1[C@@H](NC(C)=O)CC2` [colchicine] here?
**A.** inhibited; also recorded: prevented; also recorded: little X-ROS and Ca^2+ entry; also recorded: ablated

**Q.** What about the “eccentric contraction induced force drop in wild-type mice” value ([2]; mouse, in vivo) of the same compound?
**A.** significantly decreased the eccentric contraction induced force loss

**Q.** What about the cytoskeletal stiffness [7] of the same compound?
**A.** equally effective at decreasing cytoskeletal stiffness

**Q.** And the “isometric contraction induced force loss” value [3]?
**A.** significant protection from force loss; also recorded: significantly decreased the isometric contraction induced force loss

**Q.** And the “microtubule density (α-tubulin IHC)” value [8]?
**A.** decreased; also recorded: ablated the majority of the cytoskeletal structure

**Q.** And the “eccentric contraction induced force loss” value [5]?
**A.** significantly ameliorated the contraction induced force drop; also recorded: significant protection from force loss; also recorded: significantly reduced contraction induced force loss

**Q.** What about the “stretch-induced ROS production (X-ROS)” value [1] of the same compound?
**A.** prevented the increase in X-ROS; also recorded: little X-ROS; also recorded: ameliorated the stretch-induced ROS production

**Q.** Which results are given for `C/C1=C\CC[C@@]2(C)O[C@@H]2[C@H]2OC(=O)[C@H](CN(C)C)[C@@H]2CC1` [dimethylaminoparthenolide]?
**A.** isometric contraction induced force loss [3]: significantly decreased the isometric contraction induced force loss; eccentric contraction induced force drop (FIG. 13) [5]: ameliorated the force drop; eccentric contraction induced force drop (FIG. 13) ([5]; listed as LC-1): reduced eccentric contraction induced force drop

**Q.** Which “stretch-induced ROS production (X-ROS)” value [1] does the source give for `C/C1=C/C(=O)O[C@@H]2C[C@@H](CC[C@H](C)/C=C\C=C\CC1)O[C@@](O)([C@@H]1CSC(=O)N1)C2` [latrunculin A] here?
**A.** had no effect

**Q.** And the “stretch-induced ROS production (X-ROS)” value ([1]; listed as latrunuculin A)?
**A.** no significant effect

**Q.** For `CC(=O)O[C@H]1C(=O)[C@@]2(C)[C@H]([C@H](OC(=O)c3ccccc3)[C@]3(O)C[C@H](OC(=O)[C@H](O)[C@@H](NC(=O)c4ccccc4)c4ccccc4)C(C)=C1C3(C)C)[C@]1(OC(C)=O)CO[C@@H]1C[C@@H]2O` [taxol], which “Ca2+ entry in young fibers” value [9] is on record?
**A.** exuberant X-ROS and Ca^2+ entry

**Q.** What about the “X-ROS in young fibers” value [10] of the same compound?
**A.** exuberant X-ROS; also recorded: made X-ROS competent

**Q.** What about the “microtubule density (α-tubulin IHC)” value [8] of the same compound?
**A.** increased

**Q.** Which “microtubule density in isolated FDB myofibers” value [8] does the source give for “Angiotensin II: angiotensin II, increases microtubule density” here?
**A.** increases microtubule density

**Q.** And the “microtubule density in isolated FDB myofibers” value ([8]; listed as angiotensin II)?
**A.** densified the microtubule network

**Q.** And the microtubule subunit content [11]?
**A.** increased microtubule subunit content

**Q.** For “GsMTx4: mechano-sensitive (stretch activated) channel blocker (GCLEFWWKCNPNDDKCCRPKLKCSKLFKLCNFSF; ends and bridges not checked; cysteine pairing not given here; UniProt Q7YT39 47-80, looked up)”, which “stretch dependent sarcolemmal Ca2+ influx” value [6] is on record?
**A.** inhibited; also recorded: prevented; also recorded: ablated

**Q.** What about the “stretch activated calcium influx” value [12] of the same compound?
**A.** significantly reduced stretch activated Ca^2+ influx

**Q.** And the “inhibition of Piezo2 channel” value [13]?
**A.** inhibited

**Q.** And the “inhibition of Piezo1 channel” value [14]?
**A.** inhibited

**Q.** Which results are given for fulvene-5?
**A.** stretch-induced ROS production (X-ROS) [1]: verified NOX2 as the source of the stretch dependent ROS; stretch-induced ROS production (X-ROS) ([1]; listed as Fulvene 5): effective at abrogating X-ROS
